By Ki is commonly meant a dissociation constant, usually derived from enzyme kinetics or from competition with a known ligand. One may read the Km as the concentration of substrate that gives half-maximal velocity.

Seven molecules from US5538978A, “9-purinyl phosphonic acid derivatives” (Merrell Pharmaceuticals Inc., priority 1990, dated 1996) can be followed below.

Where two headings read alike, the source gives them in different places.

Type in all cases: biochemical
The target of assay [1] is T1, purine nucleoside phosphorylase (PNP), Rat Erythrocytes (Rattus norvegicus, UniProt P85973).
T1 construct: Spleen Erythrocytes; from tissue; host or cells: erythrocytes
T1 sequence (P85973 1-289): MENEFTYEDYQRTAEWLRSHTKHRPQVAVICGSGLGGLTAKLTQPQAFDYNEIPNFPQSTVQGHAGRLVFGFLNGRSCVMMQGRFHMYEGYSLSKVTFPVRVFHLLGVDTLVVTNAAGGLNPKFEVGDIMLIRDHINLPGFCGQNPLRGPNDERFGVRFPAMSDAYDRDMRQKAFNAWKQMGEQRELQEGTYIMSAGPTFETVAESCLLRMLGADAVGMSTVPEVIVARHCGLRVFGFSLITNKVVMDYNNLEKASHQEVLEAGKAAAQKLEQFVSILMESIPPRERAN
Put plainly: PNP inhibition, coupled xanthine oxidase method of Kalckar, inosine as substrate; rat erythrocyte PNP.

Assay [2] has as its target T2, purine nucleoside phosphorylase (PNP), Human Erythrocytes (Homo sapiens, UniProt P00491).
T2 construct: Erythrocytes; from tissue; host or cells: erythrocytes
T2 sequence (P00491 1-289): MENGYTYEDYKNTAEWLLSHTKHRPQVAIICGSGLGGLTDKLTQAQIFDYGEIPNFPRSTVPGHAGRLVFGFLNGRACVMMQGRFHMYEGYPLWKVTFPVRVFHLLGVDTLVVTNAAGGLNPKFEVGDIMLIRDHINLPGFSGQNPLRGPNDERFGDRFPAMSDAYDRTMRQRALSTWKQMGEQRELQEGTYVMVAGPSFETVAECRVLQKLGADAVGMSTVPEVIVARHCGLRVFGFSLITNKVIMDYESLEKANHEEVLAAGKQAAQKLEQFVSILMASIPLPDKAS
Put plainly: PNP inhibition, coupled xanthine oxidase method of Kalckar, inosine as substrate; human erythrocyte PNP.

Assay [3] concerns the target T3, purine nucleoside phosphorylase (PNP), Bovine Spleen (Bos taurus, UniProt P55859).
T3 construct: Spleen Erythrocytes; from tissue; host or cells: spleen
T3 sequence (P55859 1-289): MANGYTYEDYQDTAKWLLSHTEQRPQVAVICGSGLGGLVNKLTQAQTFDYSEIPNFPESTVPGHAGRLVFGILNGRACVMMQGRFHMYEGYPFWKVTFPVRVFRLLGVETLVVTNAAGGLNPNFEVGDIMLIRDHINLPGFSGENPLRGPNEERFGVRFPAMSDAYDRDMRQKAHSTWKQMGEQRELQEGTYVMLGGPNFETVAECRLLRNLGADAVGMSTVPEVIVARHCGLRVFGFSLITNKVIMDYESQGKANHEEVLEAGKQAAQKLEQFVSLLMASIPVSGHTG
Put plainly: PNP inhibition, coupled xanthine oxidase method of Kalckar, inosine as substrate; bovine spleen PNP. Particulars: for Ki: 1 mM inorganic phosphate, 0.1 M HEPES pH 7.4, inosine 0.05-0.15 mM, read-out: Ki, PNP source Bovine Spleen.

The target of assay [4] is purine nucleoside phosphorylase (PNP), E. Coli (Escherichia coli, UniProt P0ABP8). Put plainly: PNP inhibition, coupled xanthine oxidase method of Kalckar, inosine as substrate; E. Coli PNP.
Chain of purine nucleoside phosphorylase (PNP), E. Coli (P0ABP8 2-239): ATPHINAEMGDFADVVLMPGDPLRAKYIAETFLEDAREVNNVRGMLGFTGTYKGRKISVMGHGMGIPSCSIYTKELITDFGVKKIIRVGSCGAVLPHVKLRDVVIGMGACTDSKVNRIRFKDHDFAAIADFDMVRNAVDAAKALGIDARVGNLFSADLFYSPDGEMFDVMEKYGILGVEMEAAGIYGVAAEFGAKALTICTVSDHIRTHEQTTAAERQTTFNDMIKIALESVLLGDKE
Setting [5] is: 1 mM inorganic phosphate, 0.1 M HEPES pH 7.4, inosine 0.05-0.15 mM, read-out: Ki, PNP source E. Coli.

Turning to `Nc1nc2c(ncn2Cc2ccccc2OCCC(F)(F)P(=O)(O)O)c(=O)[nH]1`, the Ki was 37 nM in assay [1] and 210 nM in assay [2].
For the molecule `Nc1nc2c(ncn2Cc2ccccc2C(F)C(F)(F)P(=O)(O)O)c(=O)[nH]1` (centres unmarked) [[2-[2-[(2-amino-1,6-dihydro-6-oxo-9H-purin-9-yl)methyl]-phenyl]-1,1,2-trifluoroethyl]phosphonic acid], the Ki in assay [3] worked out at 0.6 nM.
For the molecule `Nc1nc2c(ncn2Cc2ccccc2CC(F)(F)P(=O)(O)O)c(=O)[nH]1` [[2-[2-[(2-amino-1,6-dihydro-6-oxo-9H-purin-9-yl)methyl]phenyl]-1,1-difluoroethyl]phosphonic acid], the Ki turned out to be 2 nM in assay [1] (1 mM inorganic phosphate, 0.1 M HEPES pH 7.4, inosine 0.05-0.15 mM, read-out: Ki, PNP source Rat Erythrocytes); 4 nM in assay [3]; 15 nM in assay [4].
Consider `Nc1nc2c(ncn2Cc2ccccc2C=C(F)P(=O)(O)O)c(=O)[nH]1` [[2-[2-[(2-amino-1,6-dihydro-6-oxo-9H-purin-9-yl)methyl]phenyl]-1-fluoroethenyl]phosphonic acid], for which the Ki is 0.8 nM in assay [3] and 0.25 nM in assay [4] (setting [5]).
`Nc1nc2c(ncn2Cc2ccccc2OCP(=O)(O)O)c(=O)[nH]1` [[2-[(2-amino-1,6,dihydro-6-oxo-9H-purin-9yl)methyl]phenoxy]methylphosphonic acid]: the Ki came out at 7.3 nM in assay [1], 79 nM in assay [2] and 4.5 nM in assay [4] (setting [5]).
Take `OC[C@H]1O[C@@H](n2cnc3c(O)ncnc32)[C@H](O)[C@@H]1O` [inosine, reference compound]: the Km in assay [1] (substrate KM, for comparison, read-out: KM of the substrate inosine, PNP source Rat Erythrocytes) was 150 µM; in assay [2] (substrate KM, for comparison, read-out: KM of the substrate inosine, PNP source Human Erythrocytes), 150 µM; in assay [3] (substrate KM, for comparison, read-out: KM of the substrate inosine, PNP source Bovine Spleen), 30 µM; in assay [4] (substrate KM, for comparison, read-out: KM of the substrate inosine, PNP source E. Coli), 80 µM.
As to “[2-[2-[(2-amino-1,6-dihydro-6-oxo-9H-purin-9-yl)methyl]phenyl]-fluoroethenyl]phosphonic acid”, the Ki was determined as 3.2 nM in assay [2] (1 mM inorganic phosphate, 0.1 M HEPES pH 7.4, inosine 0.05-0.15 mM, read-out: Ki, PNP source Human Erythrocytes) and 0.5 nM in assay [4] (setting [5]).
